Data from paper PMC6294263 (Stem Cell Reports, 2018).
pIC50: −log10 of the molar value.

Experiments:
[1] = test system: hiPSC-CMs (Cor.4U cardiomyocytes); test: calcium transient-based hiPSC-CM (CTCM) assay with cardiac hazard scoring; settings: for arrhythmic (EAD-like) events: tested concentrations of Figure 5; for EAD-like events: control drugs at control concentration (E-4031 30 nM, dofetilide 3 nM, cetirizine 1 μM)
Excerpt: Fluorescence imaging of intracellular calcium dynamics (i.e., calcium transients) enabled the evaluation of the spontaneous beating properties of hiPSC-CMs (Figure 2A) using the following parameters: (1) calcium transient duration at 90% of decay following the peak amplitude (CTD90), (2) beat rate (BR) representing the number of calcium transients (i.e., beats) per minute, and (3) amplitude (Amp), representing the difference between the minimum and the maximum (peak) calcium signal.
Effects on hiPSC-CMs were evaluated after a 30-min incubation period and normalized against the respective baseline recording, yielding a Δ% change in CTD90, BR, and Amp.
Cells were cultured with Cor.4U culture medium (Ax-M-HC250) in a humidified incubator at 37°C and 5% CO2, with medium being changed once a day. On the day of the experiment, the culture medium was replaced with Tyrode's solution (Sigma, No. T2397) supplemented with 10 mM HEPES together with KCl to represent isokalemic (4.2 mM K^+) conditions.
Briefly, Cal-520 was incubated for 45 min followed by a washout and a 30-min recovery before starting the experiments.
The spontaneous beating activity of hiPSC-CMs was assessed through measurement of the Ca^2+ fluorescence signal integrated over the whole well.
First, the experimental plates were put into the FDSS/μCell to stabilize for 10 min. Next, a baseline recording was run for 3 min followed by compound addition. The effect of a compound was recorded (5-min recording time) around 15 and 30 min after compound addition. CTD90, BR, and Amp were quantified for baseline and 30-min compound effects as the median value of all beats (calcium transients) measured within a 1-min interval of the recording. The recording around 15 min was used only for observation of EADs or fibrillation-like events. EADs were manually monitored and evaluated. Beat stop was defined after 30 min in case BR was <5 beats/min. Wells that temporarily stopped beating during compound addition but recovered at the 30-min time point were not defined as beat stop.
The responses were measured at baseline and at 30 min.

hERG = settings: no reference given; read-out: half maximal inhibitory concentration [IC50] on hERG; cited from earlier work
[2] = 30-min incubation, reference drugs
[3] = reference drugs, tested concentrations of Figure 5 (selected to cover the therapeutic free Cmax), 30-min incubation
[4] = 3 nM (2-fold free Cmax), 30-min incubation, control drug over numerous studies
[5] = 0.1 μM, 30-min incubation, control drug over numerous studies, the rest in the high hazard zone
[6] = 5 μM (free Cmax), 30-min incubation, control drug over numerous studies

CC[C@H]1[C@@H]2C[C@H]3[C@@H]4N(C)c5ccccc5[C@]45C[C@@H]([C@H]2[C@H]5O)N3[C@@H]1O [Ajmaline]
arrhythmic (EAD-like) events ([1]; reference drugs): caused arrhythmic events

CCN(CC)CCCN(c1ccccc1)C1Cc2ccccc2C1 [Aprindine]
effect on CTD90 [1, 2]: CTD90 prolongation

CC(C)NCC(O)COc1ccc(CC(N)=O)cc1 (centres unmarked) [Atenolol]
cardiac hazard label [1, 3]: not identified for any potential hazard

COC(=O)C1=C(C)NC(C)=C([N+](=O)[O-])C1c1ccccc1C(F)(F)F (centres unmarked) [BAYK8644]
effect on amplitude (Amp) ([1]; 30-min incubation): increase the Amp
cardiac hazard label [1, 3]: high

C[N+](C)(C)CCOC(N)=O [Carbachol]
cardiac hazard label [1, 3]: not identified for any potential hazard

O=C(O)COCCN1CCN(C(c2ccccc2)c2ccc(Cl)cc2)CC1 (centres unmarked) [Cetirizine]
studies identified as no hazard ([1]; 1 μM (16-fold free Cmax), 30-min incubation, control drug over numerous studies): 99%
EAD-like events ([1]; 30-min incubation): not observed any EAD-like event

CN(C)CCCC1(c2ccc(F)cc2)OCc2cc(C#N)ccc21 (centres unmarked) [Citalopram]
cardiac hazard label [1, 3]: low

CC(CCc1ccc(O)cc1)NCCc1ccc(O)c(O)c1 (centres unmarked) [Dobutamine]
effect on beat rate (BR) [1, 2]: strong BR increase
cardiac hazard label [1, 3]: low or high

CN(CCOc1ccc(NS(C)(=O)=O)cc1)CCc1ccc(NS(C)(=O)=O)cc1 [Dofetilide]
studies identified as high hazard [1, 4]: 14%
studies identified as very high hazard [1, 4]: 80%
EAD-like events ([1]; 30-min incubation): provoked such EAD-like events

COc1ccc(C(=O)Nc2ccccc2CCC2CCCCN2C)cc1 (centres unmarked) [Encainide]
arrhythmic (EAD-like) events ([1]; reference drugs): caused arrhythmic events

CN(C)CCC[C@@]1(c2ccc(F)cc2)OCc2cc(C#N)ccc21 [Escitalopram]
cardiac hazard label ([1]; at 3- to 10-fold the free Cmax): high

O=C(Nc1ccc(Oc2ccccc2)cc1)c1cccc([N+](=O)[O-])c1 [ICA-105574]
effect on CTD90 [1, 2]: CTD90 shortening
cardiac hazard label [1, 3]: hazard identification

CC(C)NCC(O)c1ccc(O)c(O)c1 (centres unmarked) [Isoprenaline]
studies identified as low hazard [1, 5]: 70%
effect on amplitude (Amp) ([1]; 30-min incubation): increase the Amp
effect on beat rate (BR) [1, 2]: strong BR increase
cardiac hazard label [1, 3]: low or high

COc1cc2c(cc1OC)CC(=O)N(CCCN(C)C[C@H]1Cc3cc(OC)c(OC)cc31)CC2 [Ivabradine]
pIC50 (hERG): ~5.62

CC(C)(Oc1ccc(Cl)cc1)C(=O)NC1C2CC3CC1CC(NS(C)(=O)=O)(C3)C2 (centres unmarked) [JNJ-303]
cardiac hazard label [1, 3]: cannot be easily detected

CC1(C)Oc2ccc(C#N)cc2[C@@H](N2CCCC2=O)[C@@H]1O [Levcromakalim]
effect on CTD90 [1, 2]: CTD90 shortening
cardiac hazard label [1, 3]: potentially hazardous compounds

CC(=O)c1c(O)c(C)c(O)c(Cc2c(O)c3c(c(C(=O)/C=C/c4ccccc4)c2O)OC(C)(C)C=C3)c1O [Mallotoxin]
effect on CTD90 [1, 2]: CTD90 shortening
cardiac hazard label [1, 3]: hazard identification

Cc1cccc(C)c1OCC(C)N (centres unmarked) [Mexiletine]
cardiac hazard label [1, 3]: low or high

O=C(NCCO[N+](=O)[O-])c1cccnc1 [Nicorandil]
cardiac hazard label [1, 3]: not shown to have any potential hazard risk

COCCOC(=O)C1=C(C)NC(C)=C(C(=O)OC(C)C)C1c1cccc([N+](=O)[O-])c1 (centres unmarked) [Nimodipine]
studies identified as low hazard [1, 5]: 80%
effect on amplitude (Amp) ([1]; 30-min incubation): strongly decrease the Amp

Cc1cc2c(s1)Nc1ccccc1N=C2N1CCN(C)CC1 [Olanzapine]
cardiac hazard label ([1]; up to the highest tested concentration (100 nM), around the free Cmax): not identified with any hazard

C[C@@H]1O[C@@H](O[C@H]2C[C@@H](O)[C@]3(CO)[C@H]4[C@H](O)C[C@]5(C)[C@@H](C6=CC(=O)OC6)CC[C@]5(O)[C@@H]4CC[C@]3(O)C2)[C@H](O)[C@H](O)[C@H]1O [Ouabain]
cardiac hazard label [1, 3]: high

O=C1NC(=O)C(c2ccccc2)(c2ccccc2)N1 [Phenytoin]
studies identified as low hazard [1, 6]: 20%
studies identified as no hazard [1, 6]: 78%
incidence of beat stop (% of wells) ([1]; 5 μM, 30-min incubation): ≤ 50%
cardiac hazard label [1, 3]: low or high

CC(N/C(=N\C#N)Nc1ccncc1)C(C)(C)C (centres unmarked) [Pinacidil]
effect on CTD90 [1, 2]: CTD90 shortening
cardiac hazard label [1, 3]: potentially hazardous compounds

CCCNCC(O)COc1ccccc1C(=O)CCc1ccccc1 (centres unmarked) [Propafenone]
effect on CTD90 [1, 2]: CTD90 prolongation

CCC(=O)O[C@](Cc1ccccc1)(c1ccccc1)[C@H](C)CN(C)C [Propoxyphene]
effect on CTD90 [1, 2]: CTD90 prolongation

C=C[C@H]1C[N@@]2CC[C@H]1C[C@@H]2[C@@H](O)c1ccnc2ccc(OC)cc12 [Quinidine]
arrhythmic (EAD-like) events ([1]; reference drugs): caused arrhythmic events

O=C(c1ccc(OCCN2CCCCC2)cc1)c1c(-c2ccc(O)cc2)sc2cc(O)ccc12 [Raloxifene]
safety margin (tested concentration/free Cmax) at which a hazard was scored ([1]; 3–10 μM, negative control drug): ≥ 2500 fold the free Cmax
concentrations not scored as no hazard ([1]; negative control drug, exception to the no hazard scoring): 3000 to 10000 nM

CC(C)(C)NCC(O)c1ccc(O)c(CO)c1 (centres unmarked) [Salbutamol]
effect on beat rate (BR) [1, 2]: strong BR increase
cardiac hazard label [1, 3]: low or high

O=C1NCCN1CCN1CCC(c2cn(-c3ccc(F)cc3)c3ccc(Cl)cc23)CC1 [Sertindole]
safety margin (tested concentration/free Cmax) at which very high hazard (arrhythmic events) was scored [1]: approximately 625 fold the free Cmax
cardiac hazard label ([1]; 1 μM, 30-min incubation): very high

CCCCCNC(=N)N/N=C/c1c[nH]c2ccc(OC)cc12 [Tegaserod]
cardiac hazard label [1, 3]: high
